{
  "source": "patent US4622293A",
  "about": "“Iodothyronine immunoassays employing HMS as TBP blocking agent” (Miles Laboratories, Inc., priority 1983, dated 1986)",
  "key": {"[1]": {"test_system": "human serum proteins (thyroxine binding proteins, TBP)", "assay": "Dissociation of 125I-thyroxine from human serum proteins by HMS (Sephadex column)", "conditions": "for Percent Dissociated in 5 Minutes / Percent Dissociated in 30 Minutes: pH 6.0, room temperature", "procedure": "Radioactive iodine-labeled thyroxine (^125 I-thyroxine obtained from New England Nuclear, Boston, MA USA) was equilibrated with 3.5 milliliter (mL) of normal human serum for 48 hours at 4° C. Aliquots of this serum [50 microliters (μL)] were added to 450 μL of 0.1 molar (M) sodium phosphate, pH 6.0, containing various concentrations of HMS to give the final concentrations given in Table 1. After 5 or 30 minutes of incubation at room temperature, a 500 μL aliquot was applied to a Sephadex column from a Seralute® thyroxine assay kit (Miles Laboratories, Inc., Ames Division, Elkhart, IN, USA), which has been equilibrated with 0.1 M sodium phosphate, pH 6.0. The total radioactivity applied to the columns was measured and the undissociated material was washed through the column. The columns were counted to determine the percentage of thyroxine dissociated from the serum proteins."}, "[2]": {"test_system": "serum proteins", "assay": "Effect of pH on the dissociation of iodothyronine from serum proteins by HMS", "type": "binding", "conditions": "for % Dissociated: 1.0 mM HMS in MIX solution", "procedure": "Assays were performed in 3 ml polystyrene test tubes in duplicate. A solution (designated \"MIX\") was prepared containing 27 mL of 0.1 M sodium phosphate, at the stated pH, 73 mL of 21% polyethyleneglycol, 1.0 mM HMS, and 10 micrograms (μg) (40 μL) I-125-thyroxine for each 100 mL. Assay solutions are made up by addition of 50 μL of a serum sample, 0.1 mL of anti(thyroxine) antiserum diluted in 0.1 M sodium phosphate (at the given pH) and 1.0 mL of the MIX solution. Assays are included for maximum binding of label and nonspecific binding."}, "[3]": {"target": "apo(glucose oxidase) (Aspergillus niger, UniProt P13006)", "sequence (P13006 17-605)": "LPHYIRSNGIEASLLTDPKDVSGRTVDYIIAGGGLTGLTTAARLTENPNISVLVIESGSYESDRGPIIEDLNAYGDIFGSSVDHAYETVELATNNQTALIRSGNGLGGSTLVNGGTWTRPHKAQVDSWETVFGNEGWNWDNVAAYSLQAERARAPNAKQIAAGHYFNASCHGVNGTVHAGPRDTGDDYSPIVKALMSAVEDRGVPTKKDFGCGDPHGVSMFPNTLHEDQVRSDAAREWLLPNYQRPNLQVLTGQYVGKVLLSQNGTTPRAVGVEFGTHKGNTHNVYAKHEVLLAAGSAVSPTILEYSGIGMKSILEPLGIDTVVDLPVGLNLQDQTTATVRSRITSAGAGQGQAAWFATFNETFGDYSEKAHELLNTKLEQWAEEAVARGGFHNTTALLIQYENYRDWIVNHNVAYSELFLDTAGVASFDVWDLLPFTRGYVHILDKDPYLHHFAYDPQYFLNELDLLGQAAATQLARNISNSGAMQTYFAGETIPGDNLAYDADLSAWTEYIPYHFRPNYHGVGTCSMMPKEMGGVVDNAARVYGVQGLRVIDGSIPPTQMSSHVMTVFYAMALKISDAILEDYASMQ", "assay": "Effect of HMS on the activation of apo(glucose oxidase) by an FAD-labeled thyroxine conjugate", "type": "biochemical", "conditions": "37° C, pH 6.5, five minute incubation, read-out: % Activity (absorbance at 520 nm as percentage of that with no HMS)", "procedure": "The activation of apoglucose oxidase was set up with different concentrations of HMS and performed at 37° C. Assays containing 50 mM sodium phosphate, pH 6.5, 200 mM glucose, 2.0 mM sodium dichlorohydroxybenzene sulfonate (DHSA), 25 μg/mL peroxidase, various concentrations of HMS and 2.5 nM final concentration of a FAD-thyroxine conjugate (see U.S. Pat. No. 4,213,893) were started by adding apo(glucose oxidase), 4-aminoantipyrine, and anti(glucose oxidase) at final concentrations of 125 nM, 400 μM, and 8 μL/mL respectively. The absorbance at 520 nm was recorded after a five minute incubation. The data are presented in Table 3 as a percentage of the absorbance recorded when no HMS is present."}, "[4]": {"assay": "Water solubility (statement)", "type": "physicochemical"}},
  "data": [
    {"compound": "COc1cc(O)c(C(=O)c2ccccc2)cc1S(=O)(=O)O", "note": "[HMS, 2-hydroxy-4-methoxybenzophenone-5-sulfonic acid]", "values": [
      {"measurement": "Percent Dissociated in 5 Minutes", "setting": "[1]; HMS 1 mM", "result": 65, "unit": "%"},
      {"measurement": "Percent Dissociated in 30 Minutes", "setting": "[1]; HMS 1 mM", "result": 73, "unit": "%"},
      {"measurement": "Percent Dissociated in 5 Minutes", "setting": "[1]; HMS 2 mM", "result": 74, "unit": "%"},
      {"measurement": "Percent Dissociated in 30 Minutes", "setting": "[1]; HMS 2 mM", "result": 84, "unit": "%"},
      {"measurement": "Percent Dissociated in 5 Minutes", "setting": "[1]; HMS 4 mM", "result": 91, "unit": "%"},
      {"measurement": "Percent Dissociated in 30 Minutes", "setting": "[1]; HMS 4 mM", "result": 94, "unit": "%"},
      {"measurement": "Percent Dissociated in 5 Minutes", "setting": "[1]; HMS 6 mM", "result": 93, "unit": "%"},
      {"measurement": "Percent Dissociated in 30 Minutes", "setting": "[1]; HMS 6 mM", "result": 95, "unit": "%"},
      {"measurement": "Dissociation of TBP-bound iodothyronine", "setting": "[1]; concentration 4 mM", "result": "over 90%"},
      {"measurement": "Dissociation of TBP-bound iodothyronine", "setting": "[1]; reaction mixture concentration 1 mM, in a few minutes", "result": "over 50%"},
      {"measurement": "% Dissociated", "setting": "[2]; pH 6.0", "result": 73, "unit": "%"},
      {"measurement": "% Dissociated", "setting": "[2]; pH 6.5", "result": 73, "unit": "%"},
      {"measurement": "% Dissociated", "setting": "[2]; pH 7.0", "result": 69, "unit": "%"},
      {"measurement": "% Dissociated", "setting": "[2]; pH 7.5", "result": 72, "unit": "%"},
      {"measurement": "Effect of pH on the efficiency of dissociation", "setting": "[2]; pH range 6.0-7.5", "result": "essentially no effect"},
      {"measurement": "activity at 50 µM", "setting": "[3]; HMS 0.05 mM", "result": 100, "unit": "%"},
      {"measurement": "activity at 100 µM", "setting": "[3]; HMS 0.10 mM", "result": 100, "unit": "%"},
      {"measurement": "activity at 500 µM", "setting": "[3]; HMS 0.50 mM", "result": 99, "unit": "%"},
      {"measurement": "activity at 1000 µM", "setting": "[3]; HMS 1.00 mM", "result": 97, "unit": "%"},
      {"measurement": "activity at 5000 µM", "setting": "[3]; HMS 5.00 mM", "result": 86, "unit": "%"},
      {"measurement": "activity at 10000 µM", "setting": "[3]; HMS 10.00 mM", "result": 72, "unit": "%"},
      {"measurement": "Water solubility", "setting": "[4]", "result": "highly water soluble"}
    ]}
  ]
}
